Each structure is given as a SMILES string.

Broadly, the GI50 is the concentration that inhibits growth by half. Higher therefore signals less potent growth inhibition.

One data set concerns HEK293 Tau-BiFC cells. The experiment in a line: Cell viability of tau-BiFC cells (number of nuclei). Type of data set: cell-based, human. Conditions: 48 h of treatment. How it is done: (§1) HEK293 Tau-BiFC cells were maintained in Dulbecco’s modified Eagle medium (DMEM) supplemented with 10% fetal bovine serum (FBS), 100 units/mL penicillin, 100 µg/mL streptomycin and 100 µg/mL Geneticin (G418) in a humidified atmosphere containing 5% CO2 at 37 °C. Tau-BiFC cells were activated by treatment with FK (30 μM) or tauK18^P301L (5 μg/mL).
(§2) For screening of FDA-approved & Passed Phase I Drug Library, tau-BiFC cells were plated on µ-clear 384-well plates. The next day, the cells were cotreated with forskolin and 1,018 library compounds at a concentration of 10 µM. MB and LMTM (3 µM) were used as positive controls. After 46 h, nuclei were counterstained with Hoechst (Invitrogen). BiFC (λex = 460–490 nm and λem = 500–550 nm) and Hoechst (λex = 355–385 nm and λem = 430–500 nm) fluorescence images were acquired automatically by using Operetta® (PerkinElmer). BiFC fluorescence intensity and the number of nuclei were quantified using Harmony 3.1 software (PerkinElmer). Integrated tau-BiFC intensity represents the area of selected cell X mean fluorescence intensity. The means and standard deviations (S.D.) of BiFC fluorescence intensities and the number of nuclei were plotted using GraphPad Prism.

Another data set concerns tau cysteines. As to the kind of experiment: Covalent binding to tau (14C autoradiography, MALDI-TOF of R1-R4 peptides). The following applies: repeat domain:levosimendan 1:10, RT. How it is done:
TauK18 (1 mg/mL, 72 μM) was incubated with ^14C-levosimendan (720 μM) in PBS containing 5% DMSO at RT for 2 h. Then, the mixture was separated on a 15% SDS–PAGE gel under nonreducing conditions and stained with Coomassie blue. For autoradiography, the SDS–PAGE gel was transferred to a PVDF membrane and scanned by Typhoon FLA 7000 IP (GE Healthcare).
Each repeat domain (R1, R2, R3, R4, R2-C291S or R3-C322S, 150 μM) was incubated with levosimendan (molar ratio 1:10 of a tau repeat domain: levosimendan) at RT for 37 h. The samples were mixed with matrix solution (10 mg mL^−1 sinapinic acid in 0.1% (v/v) trifluoroacetic acid/CAN) at a ratio of 1:1. The mixtures were directly spotted onto the MALDI target and dried. Mass spectra were acquired in reflection/linear positive ion mode in the m/z range of 2000–100,000 using an Ultraflex III TOF/TOF mass spectrometer controlled by Flex Control 3.0 (Bruker Daltonics). The default operating conditions were as follows: ion source 1, 25.0 kV; ion source 2, 23.0 kV; lens voltage, 6.0 kV; laser repetition rate = 100 Hz. All spectra were generated automatically in the instrument software and based on averaging 1000 shots from 10 nonoverlapping positions (100 shots/position).

Details of data set [1]: method as in PMID 15489122. Conditions: in humans; cited from earlier work.
Data set [2] can be described thus: Cell viability of tau-BiFC cells (number of nuclei). Type of data set: cell-based, human. The following applies: human, HEK293 Tau-BiFC cells, 48 h of treatment. As to the method: as §1, §2
Setting [3] is: Tau-BiFC^ON by forskolin (30 μM).
The mark [4] stands for this setting: Tau-BiFC^ON by tauK18^P301L (5 μg/mL).

Turning to `CN(C)c1ccc2c(c1)Sc1cc(N(C)C)ccc1N2.CS(=O)(=O)O.CS(=O)(=O)O` [LMTM, leucomethylene blue mesylate], the 50% growth inhibitory concentration (GI50) is 6.4 ± 0.3 µM in the data set with HEK293 Tau-BiFC cells (setting [3]) and 6.6 ± 0.3 µM in the data set on HEK293 Tau-BiFC cells (setting [4]).

Turning to `C[C@@H]1CC(=O)NN=C1c1ccc(NN=C(C#N)C#N)cc1` [Levosimendan], the “Covalent attachment to tau repeat domains (MALDI-mass spectrometry)” value in the data set on tau cysteines was “covalently attached to the R2 and R3 domains”. For the same molecule, the “Portion of levosimendan metabolized to OR-1855 and OR-1896” value in data set [1] was 5%. Besides, the GI50 at 48 h was 124 ± 0.3 µM in data set [2] (setting [3]) and 101.3 ± 0.4 µM in data set [2] (setting [4]).

The values above are taken from PMC10073126, “Levosimendan inhibits disulfide tau oligomerization and ameliorates tau pathology in Tau^P301L-BiFC mice” (Experimental & Molecular Medicine, 2023).
